This is an account of results in PubChem BioAssay (NCI).

The structures appear in SMILES notation.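 Each compound was tested at five concentrations against cells in 96-well plates for 48 hours. GI50 = concentration required for 50% inhibition of growth. At the TGI there is no net growth.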

Assay in all cases: NCI anticancer screen, dose series, 48 h
For assay [1], the system named is EKVX NSCLC.
Assay [2] concerns HCT-15 colon.
Assay [3] relates to HL-60(TB) leukemia.
In assay [4] the test system is HS 578T breast.
Assay [5] has as its system HT29 colon.
For assay [6], the system named is KM12 colon.
Assay [7] deals with NCI-H226 lung.
The test system of assay [8] is PC-3 prostate.
Assay [9] has as its system SK-MEL-5 melanoma.
The test system of assay [10] is SN12C renal.
Assay [11] concerns SNB-75 CNS.
For assay [12], the system named is UO-31 renal.

As for `C=CCCON(C(=O)OC(C)(C)C)C(C)(C)C`, the TGI in assay [1], in assay [2], in assay [3], in assay [4], in assay [5] and in assay [6] was above 100 µM throughout. For the same molecule, the TGI in [7], in assay [8], in [9], in assay [10], in [11] and in [12] was above 100 µM each time.
With `c1ccc(N=C(N2CCCC2)N(CCN2CCCC2)c2ccccc2)cc1`, the TGI in [1] is above 100 µM; in assay [2], above 100 µM; in [3], above 100 µM; in assay [4] it was above 100 µM; in [5], 14.8 µM; in assay [6], 41.7 µM. Besides, the TGI in assay [7] was above 100 µM; in [8] it was above 100 µM; in assay [9] it was 24.5 µM; in assay [10], above 100 µM; in [11], 78 µM; in assay [12], above 100 µM.
Turning to `CC(C)(C)OC(=O)N(CCCCN(CCCNC(=O)C(F)(F)F)C(=O)OC(C)(C)C)CCCNC(=O)C(F)(F)F`, the TGI in assay [1], in assay [2], in [3], in [4], in assay [5] and in assay [6] was above 100 µM throughout. Also, the TGI in assay [7], in [8], in assay [9], in assay [10], in [11] and in assay [12] was above 100 µM in each case.
Regarding `CC1(C)OC(C(=O)Nc2cc3c4ccccc4ccc3c3ccccc23)C(C(=O)N2CCCCC2)O1` (stereo not given), the TGI was above 100 µM in [1]; above 100 µM in assay [2]; above 100 µM in assay [3]; above 96.6 µM in assay [4]; above 100 µM in assay [5]; above 100 µM in assay [6]. The TGI in assay [7], in [8], in assay [9], in assay [10], in [11] and in [12] was above 100 µM throughout.
Take `Nc1c(C(=O)O)nnc2ccc(Cl)cc12`: the TGI in [1], in assay [2], in assay [3], in assay [4], in assay [5] and in [6] was above 100 µM each time. Moreover, the TGI in assay [7], in assay [8], in [9], in assay [10], in assay [11] and in assay [12] was above 100 µM each time.
On to `COc1cccc(C(=O)Oc2ccc(OS(=O)(=O)c3ccc(C)cc3)cc2)c1C#N`, for which the TGI in assay [1], in [2], in assay [3], in [4], in assay [5] and in [6] was above 100 µM each time. Besides, the TGI in assay [7] was above 100 µM; in assay [8], above 100 µM; in [9], 31.2 µM; in assay [10] it was above 100 µM; in assay [11] it was above 100 µM; in [12], above 100 µM.
With `C=C(Cl)C(=CCl)CCC(Br)C(C)(C)Cl` (mixture of isomers), the TGI in assay [1], in assay [2], in [3], in assay [4], in assay [5] and in assay [6] was above 10 µM throughout. Further, the TGI in [7], in assay [8], in [9], in assay [10], in assay [11] and in assay [12] was above 10 µM each time.
On to `COC(=O)C1=C(C(=O)OC)N(c2ccc(OC)cc2[N+](=O)[O-])C(c2ccc(C)cc2)=CC1c1ccc(OC)cc1OC` (stereo not given), for which the TGI in [1] was above 100 µM; in assay [2] it was 57.9 µM; in assay [3], above 44.3 µM; in [4] it was 79.5 µM; in assay [5], above 100 µM; in assay [6] it was 25.7 µM. In addition, the TGI in [7] was 49.9 µM; in assay [8], above 100 µM; in assay [9], above 100 µM; in assay [10], 26.5 µM; in assay [11], above 87.7 µM; in assay [12] it was above 31.6 µM.
Regarding `CN=C(n1ccnc1)n1ccnc1`, the TGI in [1], in assay [2], in assay [3], in assay [4], in [5] and in [6] was above 100 µM throughout. For the same molecule, the TGI in assay [7], in assay [8], in assay [9], in assay [10], in assay [11] and in assay [12] was above 100 µM each time.
As for `Cc1ccnc2[nH]c(-c3ccc4ccccc4c3)cc(=O)c12`, the TGI in assay [1] stood at 26.8 µM; in assay [2] it was 10.8 µM; in assay [3] it was 0.609 µM; in assay [4], 5.6 µM; in assay [5] it was 12.4 µM; in assay [6], 20.6 µM. In addition, the TGI in [7] is 11.4 µM; in assay [8], 6.06 µM; in assay [9], 12.7 µM; in [10] it was 18.7 µM; in [11], 4.6 µM; in [12] it was 16 µM. Besides, the GI50 was 0.202 µM in assay [3], 1.38 µM in [8] and 0.437 µM in [9].
On to `CN1C(=O)c2ccccc2OC12C=Cc1c(ccc3ccccc13)O2` (stereo not given), for which the TGI in assay [1] was 10.7 µM; in [2], above 25.5 µM; in [3] it was 17.6 µM; in [4], 33.1 µM; in [5], 10.3 µM; in [6], 8.64 µM. Besides, the TGI was 48.6 µM in [7]; 16.8 µM in assay [8]; 23 µM in assay [9]; above 57.1 µM in assay [10]; 33.1 µM in [11]; 35.8 µM in [12].
